Laboratory results published in patent US12091402B2 (Avilar Therapeutics, Inc., priority 2021, dated 2024).
Where a SMILES comes first, the peptide text is derived from it. Bridges are numbered along the chain shown (N, C = ends). The star is where a group is joined. X4 = O=C(CCCc1cn(C[C@H]2OC[C@H](Nc3nccc(C(F)(F)F)n3)[C@@H](O)[C@H]2O)nn1)*; PEG4 = NCCOCCOCCOCCOCCC(=O)O

These molecules were tested against T1, ASGPR (Homo sapiens, UniProt P07306) (assay: Affinity to ASGPR by surface plasmon resonance (SPR)).
T1 sequence (P07306 1-291): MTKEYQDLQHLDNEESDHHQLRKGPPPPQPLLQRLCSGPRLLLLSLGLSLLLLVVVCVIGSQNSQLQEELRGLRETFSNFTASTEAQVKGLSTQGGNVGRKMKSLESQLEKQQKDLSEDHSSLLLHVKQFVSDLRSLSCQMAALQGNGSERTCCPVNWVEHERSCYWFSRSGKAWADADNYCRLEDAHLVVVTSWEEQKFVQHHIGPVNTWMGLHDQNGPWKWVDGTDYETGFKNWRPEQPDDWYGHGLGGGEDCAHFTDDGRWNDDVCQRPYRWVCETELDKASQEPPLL
Protocol: Biotinylated ASGPR (20 μg/ml) was immobilized on SA sensor chips (GE Healthcare) at flow rate of 5 μl/min for 90 sec reaching an immobilization level ranging from 500-3000 resonance units (RU). The running buffer was 50 mM HEPES, pH7.5, 150 mM NaCl, 50 mM CaCl2), 0.01% P20, 3% DMSO. The concentration of compounds vary from 2 mM to 5 nM depending on Kd values. The compounds are diluted 2 or 3-fold with 8 concentration points. Solutions containing serially diluted compounds are injected at a flow rate of 40 μL/min for 150-300 sec followed by a 90-300 sec dissociation phase for each concentration. The surface was regenerated using 50 mM HEPES, pH 7.5, 150 mM NaCl, 5 mM EDTA, 0.01% P20, 3% DMSO.
Data was processed using the analysis software in Biacore 8K to perform background subtraction, double referencing, and solvent correction. Values of affinity expressed as the dissociation constants (Kd) were determined by fitting the steady state binding responses (RUs) as a function of the concentration ([Compound]) using the following equation: RU=RUmax/(KD+[Compound]), where RU max is the calculated maximal response. Where appropriate double-referenced data were fit to using a 1:1 binding model for kinetic analysis.

| SMILES | Kd |
| --- | --- |
| COc1cccc(-n2cc([C@H]3OC[C@H](Nc4nccc(C(F)(F)F)n4)[C@@H](O)[C@H]3O)nn2)c1 [A61, (2R,3R,4R,5S)-2-(1-(3-methoxyphenyl)-1H-1,2,3-triazol-4-yl)-5-((4-(trifluoromethyl)pyrimidin-2-yl)amino)tetrahydro-2H-pyran-3,4-diol] | 10000 to 100000 nM |
| CC(C)C[C@@H]1NC(=O)[C@@H](NC(=O)[C@@H](NC(=O)[C@H](CCC(N)=O)NC(=O)[C@H](Cc2c[nH]cn2)NC(=O)CCOCCOCCOCCOCCNC(=O)CCCc2cn(C[C@H]3OC[C@H](Nc4nccc(C(F)(F)F)n4)[C@@H](O)[C@H]3O)nn2)C(C)C)CSSC[C@@H](C(=O)N[C@@H](Cc2ccccc2)C(=O)N[C@@H](CO)C(=O)N[C@H](C(N)=O)[C@@H](C)O)NC(=O)[C@H](C(C)C)NC(=O)[C@@H]2CCCN2C(=O)[C@H](CCCNC(=N)N)NC(=O)CNC(=O)[C@H](CCCNC(=N)N)NC(=O)[C@H](Cc2ccc(O)cc2)NC(=O)[C@H](CO)NC1=O [Compound 18] ({X4-PEG4}-HQVCLSYRGRPVCFST-NH2; disulfide 4-13) | 500 to 1000 nM |
| O[C@@H]1[C@H](O)[C@@H](Nc2cncc(C(F)(F)F)n2)CO[C@@H]1CN1CCCCC1 [A96, (2R,3R,4R,5S)-2-(piperidin-1-ylmethyl)-5-((6-(trifluoromethyl)pyrazin-2-yl)amino)tetrahydro-2H-pyran-3,4-diol] | 1000 to 10000 nM |
| C[Si](C)(C)c1cn(C[C@H]2OC[C@H](Nc3nccc(C(F)(F)F)n3)[C@@H](O)[C@H]2O)nn1 [A66, (2R,3R,4R,5S)-5-((4-(trifluoromethyl)pyrimidin-2-yl)amino)-2-((4-(trimethylsilyl)-1H-1,2,3-triazol-1-yl)methyl)tetrahydro-2H-pyran-3,4-diol] | 1000 to 10000 nM |

The next lines start with the values.

| Kd | SMILES |
| --- | --- |
| 1000 to 10000 nM | OC[C@H]1OC[C@H](Nc2ncnn3cccc23)[C@@H](O)[C@H]1O [A49, (2R,3R,4R,5S)-2-(hydroxymethyl)-5-(pyrrolo[2,1-f][1,2,4]triazin-4-ylamino)tetrahydro-2H-pyran-3,4-diol] |
| < 1000 nM | OC[C@H]1O[C@H](OCC2CO2)[C@H](Nc2nccc(C(F)(F)F)n2)[C@@H](O)[C@H]1O (stereo partly drawn) [A76, (2R,3R,4R,5R,6S)-2-(hydroxymethyl)-6-(oxiran-2-ylmethoxy)-5-((4-(trifluoromethyl)pyrimidin-2-yl)amino)tetrahydro-2H-pyran-3,4-diol] |
| 100 to 500 nM | [N-]=[N+]=NCCCCCC(=O)NC(COCCC(=O)NCCOCCOCCOCCOC[C@@]12CO[C@@H](O1)[C@H](Nc1nc(Cl)ns1)[C@@H](O)[C@H]2O)COCCC(=O)NCCOCCOCCOCCOC[C@@]12CO[C@@H](O1)[C@H](Nc1nc(Cl)ns1)[C@@H](O)[C@H]2O [A14, 3,3′-((2-(6-azidohexanamido)propane-1,3-diyl)bis(oxy))bis(N-(1-((1S,2R,3R,4R,5S)-4-((3-chloro-1,2,4-thiadiazol-5-yl)amino)-2,3-dihydroxy-6,8-dioxabicyclo[3.2.1]octan-1-yl)-2,5,8,11-tetraoxatridecan-13-yl)propanamide)] |
| < 100 nM | O=C(O)CNC(COCCC(=O)NCCOCCOCCOCCOC[C@H]1OC[C@H](Nc2nccc(C(F)(F)F)n2)[C@@H](O)[C@H]1O)COCCC(=O)NCCOCCOCCOCCOC[C@H]1OC[C@H](Nc2nccc(C(F)(F)F)n2)[C@@H](O)[C@H]1O [A132] |
| < 1000 nM | [N-]=[N+]=NC[C@H]1OC[C@H](Nc2nccc(C(F)(F)F)n2)[C@@H](O)[C@H]1O [A59, (2R,3R,4R,5S)-2-(azidomethyl)-5-((4-(trifluoromethyl)pyrimidin-2-yl)amino)tetrahydro-2H-pyran-3,4-diol] |
| 1000 to 10000 nM | N#Cc1cc(F)cnc1N[C@H]1[C@H]2OC[C@](CO)(O2)[C@H](O)[C@@H]1O [A40, 2-[[(1S,2R,3R,4R,5S)-2,3-dihydroxy-1-(hydroxymethyl)-6,8-dioxabicyclo[3.2.1]octan-4-yl]amino]-5-fluoro-pyridine-3-carbonitrile] |
